# Experimental data from patent publication US9738634B2, “Heterocyclic amide compound and herbicide” (SYNGENTA PARTICIPATIONS AG, priority 2013, dated 2017).
# Legend:
# Assay type in all cases: in vivo
# oval-leafed pondweed [1] = assay: Test Example 1: weedkilling efficacy, preemergent weed treatment in the submerged state; C: oval-leafed pondweed; conditions: treatment dosage 252 g/ha
# Procedure, shortened: (§1)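 Pre-emergence application onto floodwater (4 cm, alluvial soil) on the day of sowing, dose expressed as g/ha from diluted emulsion formulation. Weeds sown with 2.5-leaf transplanted rice as crop; plants held at 25–30 °C in greenhouse and scored against assessment criteria after 3 weeks.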
# oval-leafed pondweed [2] = assay: Test Example 2: weedkilling efficacy, growth period weed treatment in the submerged state; C: oval-leafed pondweed; conditions: treatment dosage 252 g/ha
# Procedure, shortened: (§2)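 Weeds treated at the 1-2 leaf stage by application of diluted emulsion onto floodwater (4 cm depth, alluvial soil) at specified g/ha. Grown in greenhouse at 25 to 30° C; herbicidal effect rated three weeks after treatment.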
# crabgrass [3] = assay: Test Example 4: weedkilling efficacy by foliar treatment; D: crabgrass; conditions: treatment dosage 315 g/ha
# Procedure, shortened: (§3)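 Seeds are spot-sown into sterilized diluvial soil and covered with about 1.5 cm of soil. After 14 days' greenhouse growth at 25 to 30° C, plants are sprayed on stems and leaves with diluted emulsion at the stated g/ha rate, then scored at 3 weeks.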
# Indian mallow [4] = assay: Test Example 3: weedkilling efficacy through soil treatment; K: Indian mallow; conditions: treatment dosage 315 g/ha
# Procedure, shortened: (§4)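 Crop and weed responses were judged three weeks after a uniform surface spray of the water-diluted emulsion at the given g/ha rate. Seeds sat beneath about 1.5 cm of sterilized diluvial soil, and boxes stood in a greenhouse at 25 to 30° C.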
# soybean [5] = assay: Test Example 3: soil treatment, effect on crop; d: soybean; conditions: treatment dosage 315 g/ha
# Procedure, shortened: as §4
# wheat [6] = assay: Test Example 3: soil treatment, effect on crop; e: wheat; conditions: treatment dosage 315 g/ha
# Procedure, shortened: as §4
# catchweed [7] = assay: Test Example 3: weedkilling efficacy through soil treatment; O: catchweed; conditions: treatment dosage 315 g/ha
# Procedure, shortened: as §4
# Italian ryegrass [8] = assay: Test Example 3: weedkilling efficacy through soil treatment; I: Italian ryegrass; conditions: treatment dosage 315 g/ha
# Procedure, shortened: as §4
# crabgrass [9] = assay: Test Example 3: weedkilling efficacy through soil treatment; D: crabgrass; conditions: treatment dosage 315 g/ha
# Procedure, shortened: as §4
# catchweed [10] = assay: Test Example 4: weedkilling efficacy by foliar treatment; O: catchweed; conditions: treatment dosage 315 g/ha
# Procedure, shortened: as §3
# redroot pigweed [11] = assay: Test Example 4: weedkilling efficacy by foliar treatment; L: redroot pigweed; conditions: treatment dosage 315 g/ha
# Procedure, shortened: as §3
# directly sown rice [12] = assay: Test Example 3: soil treatment, effect on crop; b: directly sown rice; conditions: treatment dosage 315 g/ha
# Procedure, shortened: as §4
# corn [13] = assay: Test Example 4: foliar treatment, effect on crop; c: corn; conditions: treatment dosage 315 g/ha
# Procedure, shortened: as §3
# beet [14] = assay: Test Example 4: foliar treatment, effect on crop; f: beet; conditions: treatment dosage 315 g/ha
# Procedure, shortened: as §3
# birds-eye speedwell [15] = assay: Test Example 4: weedkilling efficacy by foliar treatment; p: birds-eye speedwell; conditions: treatment dosage 315 g/ha
# Procedure, shortened: as §3
# fig-leafed goosefoot [16] = assay: Test Example 4: weedkilling efficacy by foliar treatment; M: fig-leafed goosefoot; conditions: treatment dosage 315 g/ha
# Procedure, shortened: as §3
# barnyard grass [17] = assay: Test Example 1: weedkilling efficacy, preemergent weed treatment in the submerged state; A: barnyard grass; conditions: treatment dosage 252 g/ha
# Procedure, shortened: as §1
# directly sown rice [18] = assay: Test Example 4: foliar treatment, effect on crop; b: directly sown rice; conditions: treatment dosage 315 g/ha
# Procedure, shortened: as §3
# soybean [19] = assay: Test Example 4: foliar treatment, effect on crop; d: soybean; conditions: treatment dosage 315 g/ha
# Procedure, shortened: as §3
# bulrush [20] = assay: Test Example 2: weedkilling efficacy, growth period weed treatment in the submerged state; B: bulrush; conditions: treatment dosage 252 g/ha
# Procedure, shortened: as §2
# wheat [21] = assay: Test Example 4: foliar treatment, effect on crop; e: wheat; conditions: treatment dosage 315 g/ha
# Procedure, shortened: as §3
# birds-eye speedwell [22] = assay: Test Example 3: weedkilling efficacy through soil treatment; p: birds-eye speedwell; conditions: treatment dosage 315 g/ha
# Procedure, shortened: as §4
# chickweed [23] = assay: Test Example 4: weedkilling efficacy by foliar treatment; N: chickweed; conditions: treatment dosage 315 g/ha
# Procedure, shortened: as §3
# chickweed [24] = assay: Test Example 3: weedkilling efficacy through soil treatment; N: chickweed; conditions: treatment dosage 315 g/ha
# Procedure, shortened: as §4
# bulrush [25] = assay: Test Example 1: weedkilling efficacy, preemergent weed treatment in the submerged state; B: bulrush; conditions: treatment dosage 252 g/ha
# Procedure, shortened: as §1
# wild oat [26] = assay: Test Example 3: weedkilling efficacy through soil treatment; G: wild oat; conditions: treatment dosage 315 g/ha
# Procedure, shortened: as §4
# beet [27] = assay: Test Example 3: soil treatment, effect on crop; f: beet; conditions: treatment dosage 315 g/ha
# Procedure, shortened: as §4
# transplanted rice = assay: Test Example 1: preemergent weed treatment in the submerged state, effect on crop; a: transplanted rice; conditions: treatment dosage 252 g/ha
# Procedure, shortened: as §1
# green foxtail [28] = assay: Test Example 3: weedkilling efficacy through soil treatment; E: green foxtail; conditions: treatment dosage 315 g/ha
# Procedure, shortened: as §4
# barnyard grass [29] = assay: Test Example 2: weedkilling efficacy, growth period weed treatment in the submerged state; A: barnyard grass; conditions: treatment dosage 252 g/ha
# Procedure, shortened: as §2
# corn [30] = assay: Test Example 3: soil treatment, effect on crop; c: corn; conditions: treatment dosage 315 g/ha
# Procedure, shortened: as §4
# black-grass [31] = assay: Test Example 4: weedkilling efficacy by foliar treatment; H: black-grass; conditions: treatment dosage 315 g/ha
# Procedure, shortened: as §3
# wild oat [32] = assay: Test Example 4: weedkilling efficacy by foliar treatment; G: wild oat; conditions: treatment dosage 315 g/ha
# Procedure, shortened: as §3
# Italian ryegrass [33] = assay: Test Example 4: weedkilling efficacy by foliar treatment; I: Italian ryegrass; conditions: treatment dosage 315 g/ha
# Procedure, shortened: as §3
# fig-leafed goosefoot [34] = assay: Test Example 3: weedkilling efficacy through soil treatment; M: fig-leafed goosefoot; conditions: treatment dosage 315 g/ha
# Procedure, shortened: as §4
# green foxtail [35] = assay: Test Example 4: weedkilling efficacy by foliar treatment; E: green foxtail; conditions: treatment dosage 315 g/ha
# Procedure, shortened: as §3
# Indian mallow [36] = assay: Test Example 4: weedkilling efficacy by foliar treatment; K: Indian mallow; conditions: treatment dosage 315 g/ha
# Procedure, shortened: as §3
# redroot pigweed [37] = assay: Test Example 3: weedkilling efficacy through soil treatment; L: redroot pigweed; conditions: treatment dosage 315 g/ha
# Procedure, shortened: as §4
# black-grass [38] = assay: Test Example 3: weedkilling efficacy through soil treatment; H: black-grass; conditions: treatment dosage 315 g/ha
# Procedure, shortened: as §4
smiles,measurement,setting,value
COc1ccnc(NC(=O)C(C)(C)N2COC(C)=C(c3ccccc3)C2=O)c1 [B-2-63],C (oval-leafed pondweed) weedkilling efficacy grade,oval-leafed pondweed [1],"4 (weed kill ratio 70% or more, less than 90%)"
same,C (oval-leafed pondweed) weedkilling efficacy grade,oval-leafed pondweed [2],"3 (weed kill ratio 40% or more, less than 70%)"
same,D (crabgrass) weedkilling efficacy grade,crabgrass [3],"3 (weed kill ratio 40% or more, less than 70%)"
same,K (Indian mallow) weedkilling efficacy grade,Indian mallow [4],0 (weed kill ratio 5% or less (practically no effect))
same,d (soybean) effect on crop grade,soybean [5],0 (weed kill ratio 5% or less (practically no effect))
same,e (wheat) effect on crop grade,wheat [6],0 (weed kill ratio 5% or less (practically no effect))
same,O (catchweed) weedkilling efficacy grade,catchweed [7],"3 (weed kill ratio 40% or more, less than 70%)"
same,I (Italian ryegrass) weedkilling efficacy grade,Italian ryegrass [8],"3 (weed kill ratio 40% or more, less than 70%)"
same,D (crabgrass) weedkilling efficacy grade,crabgrass [9],"4 (weed kill ratio 70% or more, less than 90%)"
same,O (catchweed) weedkilling efficacy grade,catchweed [10],"2 (weed kill ratio 20% or more, less than 40%)"
same,L (redroot pigweed) weedkilling efficacy grade,redroot pigweed [11],0 (weed kill ratio 5% or less (practically no effect))
same,b (directly sown rice) effect on crop grade,directly sown rice [12],0 (weed kill ratio 5% or less (practically no effect))
same,c (corn) effect on crop grade,corn [13],0 (weed kill ratio 5% or less (practically no effect))
same,f (beet) effect on crop grade,beet [14],0 (weed kill ratio 5% or less (practically no effect))
same,P (birds-eye speedwell) weedkilling efficacy grade,birds-eye speedwell [15],"1 (weed kill ratio 5% or more, less than 20%)"
same,M (fig-leafed goosefoot) weedkilling efficacy grade,fig-leafed goosefoot [16],"3 (weed kill ratio 40% or more, less than 70%)"
same,A (barnyard grass) weedkilling efficacy grade,barnyard grass [17],"5 (weed kill ratio 90% or more, (practically complete withering))"
same,b (directly sown rice) effect on crop grade,directly sown rice [18],0 (weed kill ratio 5% or less (practically no effect))
same,d (soybean) effect on crop grade,soybean [19],"2 (weed kill ratio 20% or more, less than 40%)"
same,B (bulrush) weedkilling efficacy grade,bulrush [20],"4 (weed kill ratio 70% or more, less than 90%)"
same,e (wheat) effect on crop grade,wheat [21],0 (weed kill ratio 5% or less (practically no effect))
same,P (birds-eye speedwell) weedkilling efficacy grade,birds-eye speedwell [22],"4 (weed kill ratio 70% or more, less than 90%)"
same,N (chickweed) weedkilling efficacy grade,chickweed [23],"2 (weed kill ratio 20% or more, less than 40%)"
same,N (chickweed) weedkilling efficacy grade,chickweed [24],"3 (weed kill ratio 40% or more, less than 70%)"
same,B (bulrush) weedkilling efficacy grade,bulrush [25],"5 (weed kill ratio 90% or more, (practically complete withering))"
same,G (wild oat) weedkilling efficacy grade,wild oat [26],"2 (weed kill ratio 20% or more, less than 40%)"
same,f (beet) effect on crop grade,beet [27],0 (weed kill ratio 5% or less (practically no effect))
same,a (transplanted rice) effect on crop grade,transplanted rice,0 (weed kill ratio 5% or less (practically no effect))
same,E (green foxtail) weedkilling efficacy grade,green foxtail [28],"4 (weed kill ratio 70% or more, less than 90%)"
same,A (barnyard grass) weedkilling efficacy grade,barnyard grass [29],"3 (weed kill ratio 40% or more, less than 70%)"
same,c (corn) effect on crop grade,corn [30],0 (weed kill ratio 5% or less (practically no effect))
same,H (black-grass) weedkilling efficacy grade,black-grass [31],0 (weed kill ratio 5% or less (practically no effect))
same,G (wild oat) weedkilling efficacy grade,wild oat [32],0 (weed kill ratio 5% or less (practically no effect))
same,I (Italian ryegrass) weedkilling efficacy grade,Italian ryegrass [33],"1 (weed kill ratio 5% or more, less than 20%)"
same,M (fig-leafed goosefoot) weedkilling efficacy grade,fig-leafed goosefoot [34],"3 (weed kill ratio 40% or more, less than 70%)"
same,E (green foxtail) weedkilling efficacy grade,green foxtail [35],"3 (weed kill ratio 40% or more, less than 70%)"
same,K (Indian mallow) weedkilling efficacy grade,Indian mallow [36],0 (weed kill ratio 5% or less (practically no effect))
same,L (redroot pigweed) weedkilling efficacy grade,redroot pigweed [37],"1 (weed kill ratio 5% or more, less than 20%)"
same,H (black-grass) weedkilling efficacy grade,black-grass [38],"1 (weed kill ratio 5% or more, less than 20%)"
